The text below walks through data of paper PMC7642786, “Experimental phasing with vanadium and application to nucleotide-binding membrane proteins” (IUCrJ, 2020).

SMILES strings stand for the structures.

For this experiment, the target named is T1, McjD (antibacterial peptide ATP-binding cassette transporter) (Escherichia coli, UniProt Q9X2W0).
T1 construct: full-length, detergent (dodecyl maltopyranoside) purified, ~66 kDa, 580 residues per vanadium, homodimer; prepared as described previously
The experiment can be described thus: X-ray crystallography (V-SAD, […] Å, phased anomalous difference maps). Particulars: complex formed with 2 mM ATP, 2 mM sodium orthovanadate, 5 mM MgCl2, pH 7.8; post-hydrolysis ADP-VO4 state; one site per monomer.

T1 sequence (Q9X2W0 whole entry): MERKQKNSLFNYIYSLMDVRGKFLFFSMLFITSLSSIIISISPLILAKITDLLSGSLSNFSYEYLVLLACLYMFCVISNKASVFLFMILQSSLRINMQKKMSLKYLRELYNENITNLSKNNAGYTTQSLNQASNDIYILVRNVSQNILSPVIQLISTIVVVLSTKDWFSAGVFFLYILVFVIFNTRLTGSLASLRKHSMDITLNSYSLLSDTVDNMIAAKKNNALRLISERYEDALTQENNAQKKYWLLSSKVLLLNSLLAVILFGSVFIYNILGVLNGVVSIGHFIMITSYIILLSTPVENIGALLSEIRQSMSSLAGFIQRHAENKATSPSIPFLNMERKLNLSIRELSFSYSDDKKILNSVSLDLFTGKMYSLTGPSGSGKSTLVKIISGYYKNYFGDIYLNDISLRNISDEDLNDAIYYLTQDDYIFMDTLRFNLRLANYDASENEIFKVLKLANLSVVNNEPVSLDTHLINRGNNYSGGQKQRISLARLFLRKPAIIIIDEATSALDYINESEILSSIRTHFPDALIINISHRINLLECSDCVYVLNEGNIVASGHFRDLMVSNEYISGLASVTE

With `[O]=[V]([OH])([OH])[OH]` [VO4], the “X-ray crystallography (V-SAD, 3.4 Å, phased anomalous difference maps)” value is recorded as “two vanadium sites (one per monomer) could easily be located”.
